From PMC10518257 (Nature Cancer, 2023)
“And” between values parts separate entries of the source, which are not always exact repeats. Equal values may be shown once. Read-outs that look alike come from different tables or passages of the source.

Assays:
[1] = tested on: Ba/F3 cells expressing KIF5B–RET^G810C; assay: Growth inhibition assay in Ba/F3 cells (CellTiter-Glo, 72 h); type: cell-based; settings: replicate Sets 1-3
[2] = tested on: Ba/F3 KIF5B–RET^G810R allograft tumors; assay: Subcutaneous allograft efficacy study; type: in vivo, BALB/c nude mice; settings: in mm³ (unit assumed);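 further: mean tumor volume per dosing group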
[3] = tested on: LUAD-0087AS2 PDX; assay: PDX efficacy study; settings: pralsetinib 30 mg/kg BID
[4] = tested on: HBECp53-EV cells; assay: Growth inhibition (alamarBlue, 96 h); type: cell-based, human; settings: for raw viability signal (Source Data Fig. 3b-c): HBEC-EV, replicate sets
[5] = Animal weight of tumor-bearing mice; settings: for Animal Weight (g), Mean: Ba/F3-KIF5B::RET tumor-bearing mice (Ext. Data Fig 8i); for Animal Weight: individual animals
[6] = molecular target: T1, panel of 255 (vepafestinib) or 256 (all other inhibitors) recombinant kinases (Homo sapiens, UniProt P16234); assay: Kinase selectivity profiling at a single concentration (Carna Biosciences); type: biochemical; settings: 17 nM
T1 construct: purchased Carna Biosciences

[7] = molecular target: panel of 255 (vepafestinib) or 256 (all other inhibitors) recombinant kinases; assay: as above; type: biochemical; settings: 17 nM, 256 kinases
[8] = molecular target: T2, panel of 255 (vepafestinib) or 256 (all other inhibitors) recombinant kinases (Homo sapiens, UniProt P35916); assay: as above; type: biochemical; settings: 17 nM
T2 construct: purchased Carna Biosciences

[9] = tested on: TT cells (RET C634W); assay: Dose-response western blotting, EC50 for inhibition of protein phosphorylation; type: cell-based; settings: Homo sapiens
[10] = tested on: LUAD-0002AS1 cells (KIF5B::RET); assay: as above; type: cell-based; settings: Homo sapiens, LUAD-0002AS1, 2 h, densitometry
[11] = tested on: Ba/F3 cells expressing KIF5B–RET^V804M; assay: Growth inhibition assay in Ba/F3 cells (CellTiter-Glo, 72 h); type: cell-based; settings: replicate sets
[12] = tested on: MMNK1 cholangiocytes; assay: Growth inhibition (alamarBlue, 96 h); type: cell-based, human; settings: for raw viability signal (Source Data Fig. 3b-c): MMNK, replicates
[13] = Homo sapiens, 96 h, read-out: IC50 for Inhibition of Growth (95% CI)

T2 sequence (P35916 25-1363): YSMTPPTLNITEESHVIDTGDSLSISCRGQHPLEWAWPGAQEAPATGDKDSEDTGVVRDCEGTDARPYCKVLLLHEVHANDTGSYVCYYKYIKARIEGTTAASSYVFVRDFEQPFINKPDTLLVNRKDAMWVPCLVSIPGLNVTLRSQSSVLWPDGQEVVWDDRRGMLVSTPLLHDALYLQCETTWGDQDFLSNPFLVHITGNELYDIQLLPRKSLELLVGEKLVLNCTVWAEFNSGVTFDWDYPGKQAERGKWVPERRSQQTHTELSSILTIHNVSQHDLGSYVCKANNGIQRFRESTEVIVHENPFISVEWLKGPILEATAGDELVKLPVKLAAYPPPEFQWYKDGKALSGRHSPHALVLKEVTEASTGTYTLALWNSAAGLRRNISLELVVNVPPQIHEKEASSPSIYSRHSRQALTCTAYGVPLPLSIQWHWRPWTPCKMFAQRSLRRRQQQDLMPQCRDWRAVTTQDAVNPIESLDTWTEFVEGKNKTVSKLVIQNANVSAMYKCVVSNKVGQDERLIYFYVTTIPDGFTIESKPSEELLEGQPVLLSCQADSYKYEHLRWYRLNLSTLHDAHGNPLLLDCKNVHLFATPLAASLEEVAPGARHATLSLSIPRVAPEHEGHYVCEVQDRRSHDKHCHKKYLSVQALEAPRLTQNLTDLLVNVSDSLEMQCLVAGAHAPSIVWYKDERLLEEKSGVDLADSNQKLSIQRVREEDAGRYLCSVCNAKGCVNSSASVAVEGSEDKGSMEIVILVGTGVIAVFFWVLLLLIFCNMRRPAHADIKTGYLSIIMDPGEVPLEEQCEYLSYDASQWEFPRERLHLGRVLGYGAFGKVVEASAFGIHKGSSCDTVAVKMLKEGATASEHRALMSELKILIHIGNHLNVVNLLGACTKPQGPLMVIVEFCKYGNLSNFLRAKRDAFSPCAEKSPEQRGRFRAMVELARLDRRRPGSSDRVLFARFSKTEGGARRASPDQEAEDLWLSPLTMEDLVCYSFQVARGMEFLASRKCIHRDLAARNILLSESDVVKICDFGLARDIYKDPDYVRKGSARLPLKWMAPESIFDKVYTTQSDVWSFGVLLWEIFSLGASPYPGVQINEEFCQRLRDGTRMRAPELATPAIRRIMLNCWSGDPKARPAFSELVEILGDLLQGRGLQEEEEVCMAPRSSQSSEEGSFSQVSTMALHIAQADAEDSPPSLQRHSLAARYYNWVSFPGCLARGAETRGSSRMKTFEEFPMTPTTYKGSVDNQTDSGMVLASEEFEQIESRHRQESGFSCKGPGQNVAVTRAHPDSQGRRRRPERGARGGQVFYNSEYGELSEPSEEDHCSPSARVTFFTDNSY
T1 sequence (P16234 24-1089): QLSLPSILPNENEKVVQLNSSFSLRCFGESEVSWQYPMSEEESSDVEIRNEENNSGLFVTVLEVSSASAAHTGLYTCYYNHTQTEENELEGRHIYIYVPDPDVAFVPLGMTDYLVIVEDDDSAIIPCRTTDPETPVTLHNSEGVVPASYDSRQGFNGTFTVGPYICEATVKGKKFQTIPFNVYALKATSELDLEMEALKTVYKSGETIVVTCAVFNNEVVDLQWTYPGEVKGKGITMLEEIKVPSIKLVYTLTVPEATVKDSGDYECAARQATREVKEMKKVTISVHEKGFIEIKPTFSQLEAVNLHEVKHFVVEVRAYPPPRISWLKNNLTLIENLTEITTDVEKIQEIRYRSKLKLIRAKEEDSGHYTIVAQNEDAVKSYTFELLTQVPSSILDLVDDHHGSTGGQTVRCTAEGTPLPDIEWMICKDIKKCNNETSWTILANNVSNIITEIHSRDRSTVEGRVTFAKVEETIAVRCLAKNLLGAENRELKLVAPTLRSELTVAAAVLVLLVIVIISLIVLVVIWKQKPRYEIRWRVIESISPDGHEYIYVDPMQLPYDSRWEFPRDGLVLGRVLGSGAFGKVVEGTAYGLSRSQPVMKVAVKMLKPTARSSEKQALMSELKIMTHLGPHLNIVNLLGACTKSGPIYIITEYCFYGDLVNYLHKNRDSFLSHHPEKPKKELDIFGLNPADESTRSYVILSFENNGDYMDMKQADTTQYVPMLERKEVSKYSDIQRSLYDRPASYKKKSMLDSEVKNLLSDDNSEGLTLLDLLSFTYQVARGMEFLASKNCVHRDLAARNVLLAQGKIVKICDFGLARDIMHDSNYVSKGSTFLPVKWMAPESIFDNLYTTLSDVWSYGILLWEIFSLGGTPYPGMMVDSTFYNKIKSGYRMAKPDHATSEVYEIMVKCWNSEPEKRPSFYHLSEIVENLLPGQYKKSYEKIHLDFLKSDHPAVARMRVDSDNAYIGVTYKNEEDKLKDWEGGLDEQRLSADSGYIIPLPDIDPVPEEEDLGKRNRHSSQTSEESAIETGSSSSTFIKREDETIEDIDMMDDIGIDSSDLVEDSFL

CO[C@]1(C(=O)N[C@@H](C)c2ccc(-n3cc(F)cn3)nc2)CC[C@H](c2nc(C)cc(Nc3cc(C)[nH]n3)n2)CC1 [Pralsetinib]
GI50 ([1]; Ba/3-KIF5B-RET-G810C): 44.4 nM
GI50 ([1]; Mus musculus, BaF3, Ba/3-KIF5B-RET-G810C): 66.9 nM
Tumor Volume Mean ([2]; Fig. 7c Ba/F3-KIF5B::RET G810R, pralsetinib 10 mg/kg BID, day 1): 154.09
Tumor Volume Mean ([2]; Fig. 7c Ba/F3-KIF5B::RET G810R, pralsetinib 10 mg/kg BID, day 4): 213.90
Tumor Volume Mean ([2]; Fig. 7c Ba/F3-KIF5B::RET G810R, pralsetinib 10 mg/kg BID, day 8): 315.85
Tumor Volume Mean ([2]; Fig. 7c Ba/F3-KIF5B::RET G810R, pralsetinib 10 mg/kg BID, day 11): 472.80
Tumor Volume Mean ([2]; Fig. 7c Ba/F3-KIF5B::RET G810R, pralsetinib 10 mg/kg BID, day 15): 1059.21
Tumor Volume Mean ([2]; Fig. 7d Ba/F3-KIF5B::RET G810R, pralsetinib 30 mg/kg BID, day 1): 163.0
Tumor Volume Mean ([2]; Fig. 7d Ba/F3-KIF5B::RET G810R, pralsetinib 30 mg/kg BID, day 4): 312.7
Tumor Volume Mean ([2]; Fig. 7d Ba/F3-KIF5B::RET G810R, pralsetinib 30 mg/kg BID, day 8): 411.9
Tumor Volume Mean ([2]; Fig. 7d Ba/F3-KIF5B::RET G810R, pralsetinib 30 mg/kg BID, day 11): 562.8
Tumor Volume Mean ([2]; Fig. 7d Ba/F3-KIF5B::RET G810R, pralsetinib 30 mg/kg BID, day 15): 747.9
Change in tumor volume (% from base line) ([3]; Fig. 6a LUAD-0087AS2, individual animals): -36.557% and -40.331% and -44.442% and -50.767%
Area Under Curve Mean ([3]; Fig. 6a LUAD-0087AS2 tumor growth): -1718
raw viability signal (Source Data Fig. 3b-c) ([4]; 0.01 nM): 18620.9 (2×) and 26084.1 and 32208.8
raw viability signal (Source Data Fig. 3b-c) ([4]; 0.1 nM): 18754 (2×) and 26388.7 and 34047.4
raw viability signal (Source Data Fig. 3b-c) ([4]; 1 nM): 20833.4 (2×) and 23057.6 and 32620.9
raw viability signal (Source Data Fig. 3b-c) ([4]; 10 nM): 19432.8 (2×) and 24252.3 and 33045.2
raw viability signal (Source Data Fig. 3b-c) ([4]; 100 nM): 20060.8 (2×) and 26236.5 and 33461.6
raw viability signal (Source Data Fig. 3b-c) ([4]; 1000 nM): 13712.5 (2×) and 19031.7 and 36040.1
raw viability signal (Source Data Fig. 3b-c) ([4]; 10000 nM): 6305.27 (2×) and 11469.7 and 22649.7
IC50 [4, 13]: 6900 nM
Animal Weight, Mean ([5]; Ba/F3-KIF5B::RET G810R (Fig 8f), Pralsetinib 10 mg/kg BID, day 1): 26.74 g
Animal Weight, Mean ([5]; Ba/F3-KIF5B::RET G810R (Fig 8f), Pralsetinib 10 mg/kg BID, day 4): 26.42 g
Animal Weight, Mean ([5]; Ba/F3-KIF5B::RET G810R (Fig 8f), Pralsetinib 10 mg/kg BID, day 8): 25.72 g
Animal Weight, Mean ([5]; Ba/F3-KIF5B::RET G810R (Fig 8f), Pralsetinib 10 mg/kg BID, day 11): 26.48 g
Animal Weight, Mean ([5]; Ba/F3-KIF5B::RET G810R (Fig 8f), Pralsetinib 10 mg/kg BID, day 15): 26.66 g
Animal Weight, Mean ([5]; Ba/F3-KIF5B::RET G810R (Fig 8g), Pralsetinib 30 mg/kg BID, day 1): 25.3 g
Animal Weight, Mean ([5]; Ba/F3-KIF5B::RET G810R (Fig 8g), Pralsetinib 30 mg/kg BID, day 4): 26.8 g
Animal Weight, Mean ([5]; Ba/F3-KIF5B::RET G810R (Fig 8g), Pralsetinib 30 mg/kg BID, day 8): 26.6 g
Animal Weight, Mean ([5]; Ba/F3-KIF5B::RET G810R (Fig 8g), Pralsetinib 30 mg/kg BID, day 11): 25.3 g
Animal Weight, Mean ([5]; Ba/F3-KIF5B::RET G810R (Fig 8g), Pralsetinib 30 mg/kg BID, day 15): 26.0 g
Animal Weight (g), Mean ([5]; 3 mg/kg BID, day 1): 26.4 g
Animal Weight (g), Mean ([5]; 3 mg/kg BID, day 4): 26.5 g
Animal Weight (g), Mean ([5]; 3 mg/kg BID, day 8): 26.3 g
Animal Weight (g), Mean ([5]; 3 mg/kg BID, day 11): 27.3 g
Animal Weight (g), Mean ([5]; 3 mg/kg BID, day 15): 27.9 g
Animal Weight (g), Mean ([5]; 10 mg/kg BID, day 1): 26.2 g
Animal Weight (g), Mean ([5]; 10 mg/kg BID, day 4): 26.8 g
Animal Weight (g), Mean ([5]; 10 mg/kg BID, day 8): 26.6 g
Animal Weight (g), Mean ([5]; 10 mg/kg BID, day 11): 26.8 g
Animal Weight (g), Mean ([5]; 10 mg/kg BID, day 15): 27.7 g
Animal Weight (g), Mean ([5]; 30 mg/kg BID, day 1): 26.2 g
Animal Weight (g), Mean ([5]; 30 mg/kg BID, day 4): 26.3 g
Animal Weight (g), Mean ([5]; 30 mg/kg BID, day 8): 25.8 g
Animal Weight (g), Mean ([5]; 30 mg/kg BID, day 11): 26.9 g
Animal Weight (g), Mean ([5]; 30 mg/kg BID, day 15): 27.4 g
Animal Weight (g), Mean ([5]; 60 mg/kg BID, day 1): 25.8 g
Animal Weight (g), Mean ([5]; 60 mg/kg BID, day 4): 25.8 g
Animal Weight (g), Mean ([5]; 60 mg/kg BID, day 8): 25.6 g
Animal Weight (g), Mean ([5]; 60 mg/kg BID, day 11): 26.0 g
Animal Weight (g), Mean ([5]; 60 mg/kg BID, day 15): 26.0 g
Animal Weight ([5]; LUAD-0077AS1 PDX, Pralsetinib 30 mg/kg BID, treatment day 0): 23 g (2×) and 26 g (2×) and 21 g (2×) and 24 g and 25 g (2×) and 22 g
Animal Weight ([5]; LUAD-0077AS1 PDX, Pralsetinib 30 mg/kg BID, treatment day 4): 26 g (2×) and 23 g and 21 g (2×) and 24 g (2×) and 25 g (2×) and 22 g
Animal Weight ([5]; LUAD-0077AS1 PDX, Pralsetinib 30 mg/kg BID, treatment day 7): 26 g (2×) and 23 g and 21 g and 22 g (2×) and 25 g (2×) and 27 g and 24 g
Animal Weight ([5]; LUAD-0087AS2 PDX, Pralsetinib 30 mg/kg BID, treatment day 0): 28 g and 27 g (2×) and 23 g and 26 g
Animal Weight ([5]; LUAD-0087AS2 PDX, Pralsetinib 30 mg/kg BID, treatment day 3): 28 g and 27 g and 26 g and 24 g (2×)
Animal Weight ([5]; LUAD-0087AS2 PDX, Pralsetinib 30 mg/kg BID, treatment day 7): 28 g and 26 g (2×) and 24 g and 25 g
Animal Weight ([5]; LUAD-0087AS2 PDX, Pralsetinib 30 mg/kg BID, treatment day 10): 28 g and 27 g and 26 g and 25 g (2×)
Animal Weight ([5]; LUAD-0087AS2 PDX, Pralsetinib 30 mg/kg BID, treatment day 14): 29 g and 27 g and 26 g and 25 g (2×)
Animal Weight ([5]; LUAD-0087AS2 PDX, Pralsetinib 30 mg/kg BID, treatment day 17): 29 g and 25 g (3×) and 26 g
Animal Weight ([5]; LUAD-0087AS2 PDX, Pralsetinib 30 mg/kg BID, treatment day 21): 28 g and 24 g and 25 g (2×) and 26 g
Animal Weight ([5]; LUAD-0087AS2 PDX, Pralsetinib 30 mg/kg BID, treatment day 24): 28 g and 25 g (3×) and 26 g
Animal Weight ([5]; LUAD-0087AS2 PDX, Pralsetinib 30 mg/kg BID, treatment day 29): 28 g and 25 g (3×) and 26 g
Animal Weight ([5]; LUAD-0087AS2 PDX, Pralsetinib 30 mg/kg BID, treatment day 32): 29 g and 25 g (2×) and 26 g (2×)
Animal Weight ([5]; LUAD-0087AS2 PDX, Pralsetinib 30 mg/kg BID, treatment day 35): 29 g and 25 g (3×) and 26 g
Animal Weight ([5]; LUAD-0087AS2 PDX, Pralsetinib 30 mg/kg BID, treatment day 38): 25 g (3×) and 24 g and 26 g
Animal Weight ([5]; LUAD-0087AS2 PDX, Pralsetinib 30 mg/kg BID, treatment day 42): 28 g and 25 g (2×) and 26 g (2×)
Animal Weight ([5]; LUAD-0087AS2 PDX, Pralsetinib 30 mg/kg BID, treatment day 45): 28 g and 25 g (2×) and 26 g (2×)
% Inhibiton PDGFRα [6]: 57.1%
kinases inhibited by >50% [7]: 11
% Inhibiton FLT4 [8]: 74%
EC50 ([9]; read-out: EC50 for Inhibition of Protein Phosphorylation (95% CI), AKT S473, 2 h, densitometry): 1.5 nM
EC50 ([9]; read-out: EC50 for Inhibition of Protein Phosphorylation (95% CI), ERK1/2 T202/Y204, 2 h, densitometry): 2 nM
EC50 ([9]; read-out: EC50 for Inhibition of Protein Phosphorylation (95% CI), MEK1/2 S217/S221, 2 h, densitometry): 4.3 nM
EC50 ([9]; read-out: EC50 for Inhibition of Protein Phosphorylation (95% CI), P70 RSK T421/S424, 2 h, densitometry): 0.4 nM
EC50 ([9]; read-out: EC50 for Inhibition of Protein Phosphorylation (95% CI), RET Y905, 2 h, densitometry): 1 nM
EC50 ([9]; read-out: EC50 for Inhibition of Protein Phosphorylation (95% CI), S6RP S235/S236, 2 h, densitometry): 0.7 nM
EC50 ([10]; read-out: EC50 for Inhibition of Protein Phosphorylation (95% CI), AKT S473): 0.4 nM
EC50 ([10]; read-out: EC50 for Inhibition of Protein Phosphorylation (95% CI), ERK1/2 T202/Y204): 3.5 nM
EC50 ([10]; read-out: EC50 for Inhibition of Protein Phosphorylation (95% CI), MEK1/2 S217/S221): 0.9 nM
EC50 ([10]; read-out: EC50 for Inhibition of Protein Phosphorylation (95% CI), P70 RSK T421/S424): 1.7 nM
EC50 ([10]; read-out: EC50 for Inhibition of Protein Phosphorylation (95% CI), RET Y905): 1.1 nM
EC50 ([10]; read-out: EC50 for Inhibition of Protein Phosphorylation (95% CI), S6RP S235/S236): 1.1 nM
GI50 ([11]; Ba/3-KIF5B-RET-V804M): 7.93 nM and 8.94 nM
GI50 ([11]; Mus musculus, BaF3, Ba/3-KIF5B-RET-V804M): 8.92 nM
IC50 [12, 13]: 1220 nM
raw viability signal (Source Data Fig. 3b-c) ([12]; 0.01 nM): 14061.5 and 14595.7
raw viability signal (Source Data Fig. 3b-c) ([12]; 0.1 nM): 14508.1 and 15314.3
raw viability signal (Source Data Fig. 3b-c) ([12]; 1 nM): 14527.4 and 15275.2
raw viability signal (Source Data Fig. 3b-c) ([12]; 10 nM): 14437.6 and 14593.5
raw viability signal (Source Data Fig. 3b-c) ([12]; 100 nM): 12743.6 and 12893.3
raw viability signal (Source Data Fig. 3b-c) ([12]; 1000 nM): 8417.95 and 8619.63
raw viability signal (Source Data Fig. 3b-c) ([12]; 10000 nM): 2073.73 and 2410.62
